Tests used:
Details in all cases: exposure time: 72 h
[1] = tested on: E57 (patient-derived glioblastoma stem cells of mesenchymal subtype); assay: surviving fraction (nuclei count normalised to DMSO); higher = more cells surviving (less toxic)
[2] = tested on: E28 (patient-derived glioblastoma stem cells of classical subtype); assay: as above
[3] = tested on: E31 (patient-derived glioblastoma stem cells of proneural subtype); assay: as above
[4] = tested on: E34 (patient-derived glioblastoma stem cells of proneural subtype); assay: as above
[5] = tested on: E21 (patient-derived glioblastoma stem cells of mesenchymal subtype); assay: as above
[6] = tested on: FT3469 (normal neural stem cell line); assay: as above
[7] = tested on: E13 (patient-derived glioblastoma stem cells of classical subtype); assay: as above
[8] = tested on: E57; assay: phenotypic distance (Euclidean, principal components) from DMSO controls (arbitrary units); higher = stronger morphological change
[9] = tested on: E28; assay: as above
[10] = tested on: E31; assay: as above
[11] = tested on: E34; assay: as above
[12] = tested on: E21; assay: as above
[13] = tested on: FT3469; assay: as above
[14] = tested on: E13; assay: as above
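For phenotypic distance (Euclidean, principal components) from DMSO controls in this document: cell Painting imaging in 384-well plates, CellProfiler features reduced to at least 20 principal components, Euclidean distance versus same-plate DMSO vehicle wells (0.1% v/v), median over six images per well.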
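For surviving fraction (nuclei count normalised to DMSO) in this document: nuclei counted by high-content imaging of Hoechst-stained cells in laminin-coated 384-well plates, relative to 0.1% DMSO vehicle wells, with staurosporine as cell-death control.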

SMILES: Cc1ccc(S(=O)(=O)/C=C/C#N)cc1 [Bay 11-7082]
- surviving fraction ([1]; 4.1 nM): 0.965
- surviving fraction ([1]; 12.3 nM): 0.935
- surviving fraction ([1]; 37 nM): 0.978
- surviving fraction ([1]; 111.1 nM): 0.894
- surviving fraction ([1]; 333.3 nM): 0.905
- surviving fraction ([1]; 1000 nM): 0.712
- surviving fraction ([1]; 3000 nM): 0.107
- surviving fraction ([2]; 4.1 nM): 1.16
- surviving fraction ([2]; 12.3 nM): 1.07
- surviving fraction ([2]; 37 nM): 1.02
- surviving fraction ([2]; 111.1 nM): 0.918
- surviving fraction ([2]; 333.3 nM): 0.805
- surviving fraction ([2]; 1000 nM): 0.523
- surviving fraction ([2]; 3000 nM): 0.00427
- surviving fraction ([3]; 4.1 nM): 0.981
- surviving fraction ([3]; 12.3 nM): 1.12
- surviving fraction ([3]; 37 nM): 1.07
- surviving fraction ([3]; 111.1 nM): 0.915
- surviving fraction ([3]; 333.3 nM): 0.833
- surviving fraction ([3]; 1000 nM): 0.574
- surviving fraction ([3]; 3000 nM): 0.00325
- surviving fraction ([4]; 4.1 nM): 1.17
- surviving fraction ([4]; 12.3 nM): 0.972
- surviving fraction ([4]; 37 nM): 1.03
- surviving fraction ([4]; 111.1 nM): 0.881
- surviving fraction ([4]; 333.3 nM): 1.04
- surviving fraction ([4]; 1000 nM): 0.841
- surviving fraction ([4]; 3000 nM): 0.208
- surviving fraction ([5]; 4.1 nM): 1.01
- surviving fraction ([5]; 12.3 nM): 1.06
- surviving fraction ([5]; 37 nM): 0.902
- surviving fraction ([5]; 111.1 nM): 1
- surviving fraction ([5]; 333.3 nM): 0.952
- surviving fraction ([5]; 1000 nM): 0.67
- surviving fraction ([5]; 3000 nM): 0.000991
- surviving fraction ([6]; 4.1 nM): 0.987
- surviving fraction ([6]; 12.3 nM): 0.984
- surviving fraction ([6]; 37 nM): 0.932
- surviving fraction ([6]; 111.1 nM): 0.814
- surviving fraction ([6]; 333.3 nM): 0.809
- surviving fraction ([6]; 1000 nM): 0.714
- surviving fraction ([6]; 3000 nM): 0.0259
- surviving fraction ([7]; 4.1 nM): 0.964
- surviving fraction ([7]; 12.3 nM): 1.06
- surviving fraction ([7]; 37 nM): 1.03
- surviving fraction ([7]; 111.1 nM): 0.988
- surviving fraction ([7]; 333.3 nM): 0.976
- surviving fraction ([7]; 1000 nM): 0.692
- surviving fraction ([7]; 3000 nM): 0.0324
- phenotypic distance ([8]; 4.1 nM): 0.529
- phenotypic distance ([8]; 12.3 nM): 0.37
- phenotypic distance ([8]; 37 nM): 0.668
- phenotypic distance ([8]; 111.1 nM): 0.846
- phenotypic distance ([8]; 333.3 nM): 1.16
- phenotypic distance ([8]; 1000 nM): 2.8
- phenotypic distance ([8]; 3000 nM): 8.7
- phenotypic distance ([9]; 4.1 nM): 0.601
- phenotypic distance ([9]; 12.3 nM): 0.591
- phenotypic distance ([9]; 37 nM): 0.652
- phenotypic distance ([9]; 111.1 nM): 1.11
- phenotypic distance ([9]; 333.3 nM): 1.33
- phenotypic distance ([9]; 1000 nM): 1.83
- phenotypic distance ([9]; 3000 nM): 16.4
- phenotypic distance ([10]; 4.1 nM): 0.798
- phenotypic distance ([10]; 12.3 nM): 0.511
- phenotypic distance ([10]; 37 nM): 0.513
- phenotypic distance ([10]; 111.1 nM): 0.736
- phenotypic distance ([10]; 333.3 nM): 0.957
- phenotypic distance ([10]; 1000 nM): 1.61
- phenotypic distance ([10]; 3000 nM): 15.2
- phenotypic distance ([11]; 4.1 nM): 1.17
- phenotypic distance ([11]; 12.3 nM): 0.478
- phenotypic distance ([11]; 37 nM): 0.466
- phenotypic distance ([11]; 111.1 nM): 0.813
- phenotypic distance ([11]; 333.3 nM): 0.985
- phenotypic distance ([11]; 1000 nM): 0.91
- phenotypic distance ([11]; 3000 nM): 9.42
- phenotypic distance ([12]; 4.1 nM): 0.363
- phenotypic distance ([12]; 12.3 nM): 0.689
- phenotypic distance ([12]; 37 nM): 0.461
- phenotypic distance ([12]; 111.1 nM): 0.482
- phenotypic distance ([12]; 333.3 nM): 0.803
- phenotypic distance ([12]; 1000 nM): 2.09
- phenotypic distance ([12]; 3000 nM): 18.7
- phenotypic distance ([13]; 4.1 nM): 0.889
- phenotypic distance ([13]; 12.3 nM): 0.728
- phenotypic distance ([13]; 37 nM): 0.551
- phenotypic distance ([13]; 111.1 nM): 0.796
- phenotypic distance ([13]; 333.3 nM): 1.04
- phenotypic distance ([13]; 1000 nM): 2.13
- phenotypic distance ([13]; 3000 nM): 17.6
- phenotypic distance ([14]; 4.1 nM): 0.928
- phenotypic distance ([14]; 12.3 nM): 0.789
- phenotypic distance ([14]; 37 nM): 0.388
- phenotypic distance ([14]; 111.1 nM): 0.428
- phenotypic distance ([14]; 333.3 nM): 0.7
- phenotypic distance ([14]; 1000 nM): 2.5
- phenotypic distance ([14]; 3000 nM): 13.2

SMILES: CN(C(=O)CN(CCO)CC(=O)N(C)C(C)(C)Cc1ccccc1)C(C)(C)Cc1ccccc1 [Oxethazaine]
- surviving fraction ([1]; 4.1 nM): 1.01
- surviving fraction ([1]; 12.3 nM): 0.936
- surviving fraction ([1]; 37 nM): 0.966
- surviving fraction ([1]; 111.1 nM): 0.964
- surviving fraction ([1]; 333.3 nM): 0.991
- surviving fraction ([1]; 1000 nM): 0.948
- surviving fraction ([1]; 3000 nM): 1
- surviving fraction ([2]; 4.1 nM): 1.08
- surviving fraction ([2]; 12.3 nM): 0.989
- surviving fraction ([2]; 37 nM): 1.05
- surviving fraction ([2]; 111.1 nM): 0.943
- surviving fraction ([2]; 333.3 nM): 1.15
- surviving fraction ([2]; 1000 nM): 1
- surviving fraction ([2]; 3000 nM): 1.16
- surviving fraction ([3]; 4.1 nM): 0.961
- surviving fraction ([3]; 12.3 nM): 0.975
- surviving fraction ([3]; 37 nM): 1.03
- surviving fraction ([3]; 111.1 nM): 0.93
- surviving fraction ([3]; 333.3 nM): 1.09
- surviving fraction ([3]; 1000 nM): 1.01
- surviving fraction ([3]; 3000 nM): 1.01
- surviving fraction ([4]; 4.1 nM): 1.02
- surviving fraction ([4]; 12.3 nM): 0.88
- surviving fraction ([4]; 37 nM): 1.05
- surviving fraction ([4]; 111.1 nM): 0.971
- surviving fraction ([4]; 333.3 nM): 1.19
- surviving fraction ([4]; 1000 nM): 1.2
- surviving fraction ([4]; 3000 nM): 0.914
- surviving fraction ([5]; 4.1 nM): 0.958
- surviving fraction ([5]; 12.3 nM): 1
- surviving fraction ([5]; 37 nM): 1.03
- surviving fraction ([5]; 111.1 nM): 0.955
- surviving fraction ([5]; 333.3 nM): 1.12
- surviving fraction ([5]; 1000 nM): 0.969
- surviving fraction ([5]; 3000 nM): 1.08
- surviving fraction ([6]; 4.1 nM): 0.961
- surviving fraction ([6]; 12.3 nM): 0.979
- surviving fraction ([6]; 37 nM): 1.02
- surviving fraction ([6]; 111.1 nM): 1.05
- surviving fraction ([6]; 333.3 nM): 0.978
- surviving fraction ([6]; 1000 nM): 1.1
- surviving fraction ([6]; 3000 nM): 0.933
- surviving fraction ([7]; 4.1 nM): 1.09
- surviving fraction ([7]; 12.3 nM): 0.968
- surviving fraction ([7]; 37 nM): 0.928
- surviving fraction ([7]; 111.1 nM): 1.04
- surviving fraction ([7]; 333.3 nM): 1.07
- surviving fraction ([7]; 1000 nM): 0.99
- surviving fraction ([7]; 3000 nM): 0.951
- phenotypic distance ([8]; 4.1 nM): 0.467
- phenotypic distance ([8]; 12.3 nM): 0.582
- phenotypic distance ([8]; 37 nM): 0.373
- phenotypic distance ([8]; 111.1 nM): 0.789
- phenotypic distance ([8]; 333.3 nM): 0.553
- phenotypic distance ([8]; 1000 nM): 0.494
- phenotypic distance ([8]; 3000 nM): 1.79
- phenotypic distance ([9]; 4.1 nM): 0.766
- phenotypic distance ([9]; 12.3 nM): 0.639
- phenotypic distance ([9]; 37 nM): 0.581
- phenotypic distance ([9]; 111.1 nM): 0.521
- phenotypic distance ([9]; 333.3 nM): 0.535
- phenotypic distance ([9]; 1000 nM): 0.928
- phenotypic distance ([9]; 3000 nM): 0.763
- phenotypic distance ([10]; 4.1 nM): 1.19
- phenotypic distance ([10]; 12.3 nM): 0.518
- phenotypic distance ([10]; 37 nM): 0.559
- phenotypic distance ([10]; 111.1 nM): 0.664
- phenotypic distance ([10]; 333.3 nM): 0.743
- phenotypic distance ([10]; 1000 nM): 0.675
- phenotypic distance ([10]; 3000 nM): 1.16
- phenotypic distance ([11]; 4.1 nM): 0.701
- phenotypic distance ([11]; 12.3 nM): 0.608
- phenotypic distance ([11]; 37 nM): 0.585
- phenotypic distance ([11]; 111.1 nM): 0.716
- phenotypic distance ([11]; 333.3 nM): 0.77
- phenotypic distance ([11]; 1000 nM): 0.595
- phenotypic distance ([11]; 3000 nM): 0.878
- phenotypic distance ([12]; 4.1 nM): 1.27
- phenotypic distance ([12]; 12.3 nM): 0.301
- phenotypic distance ([12]; 37 nM): 0.673
- phenotypic distance ([12]; 111.1 nM): 0.767
- phenotypic distance ([12]; 333.3 nM): 0.702
- phenotypic distance ([12]; 1000 nM): 0.599
- phenotypic distance ([12]; 3000 nM): 0.942
- phenotypic distance ([13]; 4.1 nM): 1.79
- phenotypic distance ([13]; 12.3 nM): 0.53
- phenotypic distance ([13]; 37 nM): 0.88
- phenotypic distance ([13]; 111.1 nM): 0.534
- phenotypic distance ([13]; 333.3 nM): 0.669
- phenotypic distance ([13]; 1000 nM): 0.43
- phenotypic distance ([13]; 3000 nM): 1.12
- phenotypic distance ([14]; 4.1 nM): 0.675
- phenotypic distance ([14]; 12.3 nM): 0.799
- phenotypic distance ([14]; 37 nM): 3.23
- phenotypic distance ([14]; 111.1 nM): 0.762
- phenotypic distance ([14]; 333.3 nM): 0.641
- phenotypic distance ([14]; 1000 nM): 3.59
- phenotypic distance ([14]; 3000 nM): 0.501

— the supplement of paper PMC13207355
